Consider 1 compound from patent US9526915B2, “Methods for regulating cell mitosis by inhibiting serine/threonine phosphatase” (priority 2008, dated 2016).

Molecules are shown by their SMILES. Entries after “also recorded” stand apart in the source; their conditions may differ.

Experiment [1] has as its system SH-SY5Y xenografts. Description: SH-SY5Y neuroblastoma s.c. xenografts in SCID mice, compound 102 and TMZ. In kind it is in vivo. The conditions noted are these: as U87MG plus one additional cycle; followed 7 weeks. As to the method:
5×10^6 U87MG cells were inoculated s.c. into each flank of 20 SCID mice. When the xenografts were 0.5+/−0.1 cm (day 0), 5 animals each received i.p. vehicle alone days 1-12 (50% DMSO/H20); compound 102 alone at 1.5 mg/kg days 1-3, 5-7, & 9-11; TMZ alone at 80 mg/kg days 4, 8, 12; or both drugs at the same doses and schedules. If xenografts reached 1800 mm^3, animals were sacrificed. […] B, Survival curve combining the data from the study shown in FIG. 12A, with a second identical study involving a total of 10 animals with two xenografts each. Disease-free survival was defined as no recurrence of either xenografts. […] As in 12A, except that xenografts of SH-SY5Y cells were implanted in one flank only and animals were treated with one additional cycle of drugs, i.e., compound 102 on days 13-15, TMZ, on day 16, and compound 102 plus TMZ on the same schedules. […] E, Western blots of U87 cells in culture 24 hours after exposure to compound 102 at 2.5 uM, TMZ at 25 uM or DOX at 2 uM, and compound 102 plus TMZ or DOX. F, Western blots of U373 cells 24 hours after exposure to compound 102 at 2.5 uM, doxorubicin at 2 uM, and both drugs. G, Western blots of U373 cells 24 hours after exposure to TMZ at 25 uM, okadaic acid at 2 nM, and both drugs. […]

Experiment [2] concerns the target T1, PP2A (Homo sapiens, UniProt P67775). Description: PP2A activity in U87 xenografts and normal brain after i.p. injection. The conditions noted are these: single dose 1.5 mg/kg i.p. Also on record: PP2A activity in U87 s.c. xenografts (blue) and in normal brain tissue (yellow) of SCID mice; from tissue; host or cells: U87 s.c. xenografts and normal brain tissue of SCID mice. It is filed as in vivo, SCID mice. As to the method: PP2A activity in U87 s.c. xenografts (blue) and in normal brain tissue (yellow) of SCID mice at different times after i.p. injection of 1.5 mg/kg compound 102 (one mouse per point; each lysate was measured in triplicate: mean and s.d.)
Recent work led to the discovery that treatment with the compound, compound 100, and several homologs inhibit the serine/threonine protein phosphatases PP2A (FIG. 1). Compound 102 inhibits PP2A (IC50=˜0.4 μM) more potently than PP1 (IC50=˜80 μM) (FIG. 2). Associated with their inhibition of PP2A, Compound 100 and homologs inhibit a variety of human cancer cell types growing in cell culture and growing in vivo as xenografts implanted subcutaneously in SCID mice (FIG. 3 and FIG. 4). […] Death of these cancer cells is associated with profound disruption of microtubular structures. Such patterns of disordered microtubules during mitosis have been noted after exposure of cancer cells to spindle toxins include such vincristine, vinblastine, taxol, taxotere, ionizing radiation, and DNA damaging agents including anthracyclines and the platinum based compounds. The morphologic appearance of cells displaying these characteristics has been called the mitotic catastrophe phenotype (Castedo et al 2004).
Target sequence in this assay (P67775 whole entry): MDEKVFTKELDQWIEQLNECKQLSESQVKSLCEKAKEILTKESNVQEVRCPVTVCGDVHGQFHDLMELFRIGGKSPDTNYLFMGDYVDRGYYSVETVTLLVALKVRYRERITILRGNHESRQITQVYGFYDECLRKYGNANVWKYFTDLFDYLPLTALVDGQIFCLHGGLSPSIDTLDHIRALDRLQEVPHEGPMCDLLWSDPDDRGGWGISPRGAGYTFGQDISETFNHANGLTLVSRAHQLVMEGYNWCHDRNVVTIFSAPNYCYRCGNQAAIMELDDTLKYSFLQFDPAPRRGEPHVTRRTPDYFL

Experiment [3] has as its system U373 cells. Description: Cell cycle distribution of U373 cells by FACS. It is filed as cell-based, human. Particulars: U373, 48 hours. The method, then: (§1) Cells in unsynchronized logarithmic growth were exposed to vehicle or drug and adherent cells and cells in the media were collected. Harvested cells were fixed with 70% cold ethanol for 20 min at −20 degrees, washed with PBS, and stained with 10 ug/ml of PI and 1 ug/ml RNAse in TBS for 30 minutes and analyzed by FACS. A, Flow cytometry profiles of U87 cells after exposures to DMSO only, compound 102 only, 5 uM; TMZ only, 25 uM; compound 102 with TMZ combination, doxorubicin only, 2.0 uM and compound 102 with doxorubicin combination. B, Flow cytometry profiles of U373 cells. Exposures as in A, and C, Schema of proposed mechanisms of compound 102 enhancement of cancer chemotherapy.
(§2) We analyzed cell cycle patterns of U87MG and U373 cells 48 hours after exposure to TMZ or DOX alone and in combination with compound 102.
A general note: In flow cytometry, cells or beads pass a laser one at a time.

Experiment [4] deals with DAOY medulloblastoma cells. Description: DAOY medulloblastoma s.c. xenografts in SCID mice. It is filed as in vivo. Particulars: treatment from day 6, by day 23. As to the method: DAOY medulloblastoma cells were implanted subcutaneously into the flanks of SCID mice. On day 6, mice were divided into 3 groups, one group receiving Compound 100, one group receiving Compound 102, and one group receiving vehicle alone. The subcutaneous tumor masses were measured on day 6, day 13, day 18, and on day 23 when all animals were sacrificed. […] In this model DAOY cells, when untreated, reached their maximum growth about 2 weeks after implantation with slow regression thereafterwards.

Experiment [5] deals with T1, PP2A. In words: PP2A activity in DAOY cells (immunoprecipitated PP2A/Akt-1 complexes, Malachite Green assay). The conditions noted are these: 0.15, 0.25, 0.3 μM, 1 hour. On the set-up: PP2A activity from the immunoprecipitated complexes was assayed; endogenous in cells; host or cells: DAOY cells. In kind it is cell-based. The method, then: Cultured DAOY cells were plated in […] flasks. When the cells were 80% confluent, the media was replaced with media containing either 0.15 μM Compound 102, 0.25 μM Compound 102, 0.3 μM Compound 102, or an equivalent volume of PBS vehicle. After 1 hour, the cells were washed three times in a 0.9% normal saline solution. T-PER solution was added to the cells, and cells were prepared for protein extraction. Lysates from each treatment group containing 300 μg of protein were applied to a spin column (Catch and Release v2.0 Reversible Immunoprecipitation System, Millipore, Billerica, Mass.) for immunoprecipitation of PP2A/Akt-1 kinase protein complexes using polyclonal anti-rabbit Akt-1 antibody (Cell Signaling Technology, Danvers, Mass.). PP2A activity from the immunoprecipitated complexes was assayed using a Malachite Green Phosphatase Assay specific for serine/threonine phosphatase activity (Ser/Thr Phosphatase Assay Kit 1, Millipore, Billerica, Mass.).
Target sequence in this assay (P67775 whole entry): as above
Target sequence in this assay (P30153 2-589 partner limits assumed): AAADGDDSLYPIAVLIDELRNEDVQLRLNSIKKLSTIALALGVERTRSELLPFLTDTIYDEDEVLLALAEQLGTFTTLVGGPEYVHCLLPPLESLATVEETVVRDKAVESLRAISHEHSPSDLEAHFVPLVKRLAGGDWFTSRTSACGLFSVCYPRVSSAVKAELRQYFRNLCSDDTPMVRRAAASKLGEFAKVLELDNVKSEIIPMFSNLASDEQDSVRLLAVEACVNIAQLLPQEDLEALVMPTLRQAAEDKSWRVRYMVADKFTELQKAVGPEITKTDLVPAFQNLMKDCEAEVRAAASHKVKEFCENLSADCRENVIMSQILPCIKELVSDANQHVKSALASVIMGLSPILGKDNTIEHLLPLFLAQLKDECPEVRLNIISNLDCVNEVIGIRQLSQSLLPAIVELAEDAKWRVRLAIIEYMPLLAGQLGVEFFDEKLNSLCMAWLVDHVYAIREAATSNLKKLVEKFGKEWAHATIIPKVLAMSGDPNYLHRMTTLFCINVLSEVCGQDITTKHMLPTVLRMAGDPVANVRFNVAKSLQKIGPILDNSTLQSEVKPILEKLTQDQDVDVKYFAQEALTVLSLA

Experiment [6] deals with U87MG cells. Description: Cell cycle distribution of U87MG cells by FACS. It is filed as cell-based, human. The conditions noted are these: 48 hours. The method, then:
as §1, §2

In experiment [7] the test system is U373 cells. In words: Western blots of U373 cells. Particulars: U373 (mutant p53), 24 hours. In kind it is cell-based, human. As to the method:
5×10^6 U87MG cells were inoculated s.c. into each flank of 20 SCID mice. When the xenografts were 0.5+/−0.1 cm (day 0), 5 animals each received i.p. vehicle alone days 1-12 (50% DMSO/H20); compound 102 alone at 1.5 mg/kg days 1-3, 5-7, & 9-11; TMZ alone at 80 mg/kg days 4, 8, 12; or both drugs at the same doses and schedules. If xenografts reached 1800 mm^3, animals were sacrificed. […] B, Survival curve combining the data from the study shown in FIG. 12A, with a second identical study involving a total of 10 animals with two xenografts each. Disease-free survival was defined as no recurrence of either xenografts. […] As in 12A, except that xenografts of SH-SY5Y cells were implanted in one flank only and animals were treated with one additional cycle of drugs, i.e., compound 102 on days 13-15, TMZ, on day 16, and compound 102 plus TMZ on the same schedules. […] E, Western blots of U87 cells in culture 24 hours after exposure to compound 102 at 2.5 uM, TMZ at 25 uM or DOX at 2 uM, and compound 102 plus TMZ or DOX. F, Western blots of U373 cells 24 hours after exposure to compound 102 at 2.5 uM, doxorubicin at 2 uM, and both drugs. G, Western blots of U373 cells 24 hours after exposure to TMZ at 25 uM, okadaic acid at 2 nM, and both drugs.

Setting [8] is: compound 102 5 uM, TMZ 25 uM, doxorubicin 2.0 uM.

For the compound `CC(C)(C)OC(=O)N1CCN(C(=O)C2C(C(=O)O)[C@H]3CC[C@@H]2O3)CC1` (stereo partly drawn) [Compound 102], the “NB (SH-SY5Y) xenograft growth” value in experiment [1] was “completely suppressed growth for 2 weeks; also recorded: no growth until week 3”. For the same compound, in experiment [2], the “PP2A activity in normal brain tissue” value was “inhibits PP2A activity”. Moreover, in experiment [2], the “PP2A activity in s.c. U87 MG xenografts” value was “inhibits PP2A activity”. Besides, the G1 phase cells result is on record as “no effect” in experiment [3] (setting [8]) and “decreased” in experiment [6] (setting [8]). Also, the G2/M phase cells entry was “no effect” in experiment [3] (same concentrations) and “prominently increased” in experiment [6] (same concentrations). In addition, the S phase cells entry in experiment [3] (same concentrations) was “no effect”; in experiment [6] (same concentrations), “modestly increased”. In addition, the “DAOY subcutaneous tumor mass” value in experiment [4] is “marked regression”. Also, in experiment [5], the “PP2A activity in DAOY cell line” value is “Inhibition”. In experiment [7], the “molecular changes in pAkt-1, p53, and MDM2 compared with U87MG” value was “same molecular changes”.
